Results: ChEMBL document CHEMBL1127843, “2-(3,4-Dichlorophenyl)-N-methyl-N-[(1S)-1-(3-isothiocyanatophenyl)-2-(1-pyrrolidinyl)ethyl]acetamide: an opioid receptor affinity label that produces selective and long-lasting kappa antagonism in mice” (J Med Chem, 1994)

System: Mus musculus
Assay: Compound was evaluated for […] antagonist activity towards Mouse vas deferens(MVD)
Assay type: functional

## CN(C(=O)Cc1ccc(Cl)c(Cl)c1)[C@H](CN1CCCC1)c1cccc(N=C=S)c1
  IC50: 0.0111 µM
